Test results reported in the supplement of paper PMC13380429.

What was measured:
Conditions in all cases: 72 h
Caco-2 [1] = assay: cell viability relative to DMSO; higher = less toxic
Calu-3 [2] = assay: as above
U2OS [3] = assay: as above
Vero E6 [4] = assay: as above
Caco-2 [5] = assay: relative viability EC50 (midpoint between 100% and the lowest measured viability); higher = less toxic
Calu-3 [6] = assay: as above
U2OS [7] = assay: as above
Vero E6 [8] = assay: as above
Caco-2 [9] = assay: drug sensitivity score (DSS) for viability; higher = more toxic; extreme values may be limits of the assay
Calu-3 [10] = assay: as above
U2OS [11] = assay: as above
Vero E6 [12] = assay: as above
HepG2 [13] = assay: cell viability relative to DMSO; higher = less toxic
HepG2 [14] = assay: relative viability EC50 (midpoint between 100% and the lowest measured viability); higher = less toxic
HepG2 [15] = assay: drug sensitivity score (DSS) for viability; higher = more toxic; extreme values may be limits of the assay

| SMILES | cell viability (Caco-2 [1]; 1 nM) [%] | cell viability (Caco-2 [1]; 10 nM) [%] | cell viability (Caco-2 [1]; 100 nM) [%] | cell viability (Caco-2 [1]; 1000 nM) [%] | cell viability (Caco-2 [1]; 10000 nM) [%] | cell viability (Calu-3 [2]; 1 nM) [%] | cell viability (Calu-3 [2]; 10 nM) [%] | cell viability (Calu-3 [2]; 100 nM) [%] | cell viability (Calu-3 [2]; 1000 nM) [%] | cell viability (Calu-3 [2]; 10000 nM) [%] | cell viability (U2OS [3]; 1 nM) [%] | cell viability (U2OS [3]; 10 nM) [%] | cell viability (U2OS [3]; 100 nM) [%] | cell viability (U2OS [3]; 1000 nM) [%] | cell viability (U2OS [3]; 10000 nM) [%] | cell viability (Vero E6 [4]; 1 nM) [%] | cell viability (Vero E6 [4]; 10 nM) [%] | cell viability (Vero E6 [4]; 100 nM) [%] | cell viability (Vero E6 [4]; 1000 nM) [%] | cell viability (Vero E6 [4]; 10000 nM) [%] | relative viability EC50 (Caco-2 [5]) [µM] | relative viability EC50 (Calu-3 [6]) [µM] | relative viability EC50 (U2OS [7]) [µM] | relative viability EC50 (Vero E6 [8]) [µM] | drug sensitivity score (Caco-2 [9]) | drug sensitivity score (Calu-3 [10]) | drug sensitivity score (U2OS [11]) | drug sensitivity score (Vero E6 [12]) | cell viability (HepG2 [13]; 1 nM) [%] | cell viability (HepG2 [13]; 10 nM) [%] | cell viability (HepG2 [13]; 100 nM) [%] | cell viability (HepG2 [13]; 1000 nM) [%] | cell viability (HepG2 [13]; 10000 nM) [%] | relative viability EC50 (HepG2 [14]) [µM] | drug sensitivity score (HepG2 [15]) |
| --- | --- | --- | --- | --- | --- | --- | --- | --- | --- | --- | --- | --- | --- | --- | --- | --- | --- | --- | --- | --- | --- | --- | --- | --- | --- | --- | --- | --- | --- | --- | --- | --- | --- | --- | --- |
| CCOc1nc2cccc(C(=O)OCc3oc(=O)oc3C)c2n1Cc1ccc(-c2ccccc2-c2noc(=O)[nH]2)cc1 [azilsartan-medoxomil] | 107 | 86.4 | 83.3 | 107 | 85.1 | 104 | 102 | 96.3 | 101 | 93.1 | 98.7 | 101 | 94.7 | 97.3 | 92.8 | 113 | 107 | 107 | 99.4 | 101 | > 10 | > 10 | > 10 | > 10 | 0.1 | 0 | 0 | 0 | – | – | – | – | – | – | – |
| COc1cc2c(cc1OC)[C@@H]1Cc3ccc(OC)c(OC)c3CN1CC2 [rotundine] | 102 | 98.1 | 94.8 | 109 | 91 | 103 | 108 | 99.8 | 101 | 89.2 | – | – | – | – | – | – | – | – | – | – | > 10 | > 10 | – | – | 0 | 0 | – | – | – | – | – | – | – | – | – |
| c1ccc2nc(C3=NCCN3)cnc2c1 [BU-239] | 97.1 | 101 | 102 | 102 | 100 | 101 | 106 | 95.4 | 112 | 99.8 | – | – | – | – | – | – | – | – | – | – | > 10 | > 10 | – | – | 0 | 0 | – | – | 99.2 | 104 | 112 | 104 | 101 | > 10 | 0 |
| C[n+]1ccc(C(=O)NCc2ccccc2)cc1 [enisamium-iodide] | 98.8 | 103 | 87.7 | 94.5 | 99.1 | 96.5 | 100 | 91 | 108 | 102 | 104 | 103 | 98.9 | 103 | 103 | – | – | – | – | – | > 10 | > 10 | > 10 | – | 0 | 0 | 0 | – | 88.7 | 96.3 | 99.7 | 79.7 | 81.7 | > 10 | 2.8 |
| C[C@H](N)C(=O)O [L-alanine] | 102 | 96.6 | 99.4 | 106 | 105 | 102 | 94.3 | 99.6 | 106 | 84.2 | 94.5 | 102 | 104 | 105 | 96.3 | 104 | 103 | 106 | 98.9 | 104 | > 10 | > 10 | > 10 | > 10 | 0 | 0.2 | 0 | 0 | – | – | – | – | – | – | – |
| CN(C)CCOc1cc(-c2cn[nH]c2)ccc1NC(=O)C1COc2ccccc2O1 (stereo not drawn) [SR-3677] | 100 | 95.6 | 105 | 105 | 94.9 | 102 | 93.4 | 99.4 | 148 | 134 | 99.8 | 101 | 95.6 | 98.6 | 79.6 | 96.5 | 95.9 | 95.7 | 81.4 | 68.8 | > 10 | > 10 | > 10 | – | 0 | 0 | 0.8 | 3.3 | 99.3 | 108 | 101 | 86 | 88.4 | > 10 | 1.1 |
| COc1ccc(OC)c(C(O)C(C)N)c1 (stereo not drawn) [methoxamine] | – | – | – | – | – | 93.7 | 99.6 | 103 | 100 | 109 | – | – | – | – | – | 109 | 107 | 99.4 | 102 | 102 | – | > 10 | – | > 10 | – | 0 | – | 0 | – | – | – | – | – | – | – |
| COCCOC(=O)C1=C(C)NC(C)=C(C(=O)OC/C=C/c2ccccc2)C1c1cccc([N+](=O)[O-])c1 (stereo not drawn) [cilnidipine] | 91.1 | 94.3 | 94 | 92.9 | 67.7 | 99.2 | 105 | 93.3 | 105 | 95.2 | 99.1 | 103 | 98.8 | 104 | 85 | – | – | – | – | – | – | > 10 | > 10 | – | 2.5 | 0 | 0.1 | – | 118 | 104 | 114 | 104 | 91.8 | > 10 | 0 |
| [I-].[K+] [potassium-iodide] | – | – | – | – | – | 99.9 | 111 | 96.2 | 102 | 95.1 | – | – | – | – | – | 102 | 99.7 | 103 | 101 | 106 | – | > 10 | – | > 10 | – | 0 | – | 0 | – | – | – | – | – | – | – |
| C/C=C/C[C@@H](C)C(=O)[C@H]1C(=O)N[C@@H](C(C)C)C(=O)N(C)CC(=O)N(C)[C@@H](CC(C)C)C(=O)N[C@@H](C(C)C)C(=O)N(C)[C@@H](CC(C)C)C(=O)N[C@@H](C)C(=O)N[C@H](C)C(=O)N(C)[C@@H](CC(C)C)C(=O)N(C)[C@@H](CC(C)C)C(=O)N(C)[C@@H](C(C)C)C(=O)N1C [valspodar] | 119 | 111 | 106 | 73.5 | 50.7 | 109 | 99.8 | 95.4 | 105 | 82.2 | 99.9 | 96.4 | 102 | 99.7 | 87.4 | – | – | – | – | – | – | > 10 | > 10 | – | 5.9 | 0.3 | 0.1 | – | – | – | – | – | – | – | – |
| C[C@@H]1C[C@H]2[C@@H]3CCC4=CC(=O)C=C[C@]4(C)[C@@]3(F)[C@@H](O)C[C@]2(C)[C@@]1(O)C(=O)COP(=O)(O)O [DEXAMETHASONE SODIUM PHOSPHATE] | 95.9 | 88 | 99.7 | 96.2 | 97.5 | 106 | 107 | 89.9 | 105 | 90 | 99.8 | 98.8 | 97.7 | 95.8 | 95.7 | – | – | – | – | – | > 10 | > 10 | > 10 | – | 0 | 0 | 0 | – | 111 | 108 | 100 | 97.8 | 93.6 | > 10 | 0 |
| CCCCCCNC(=O)n1cc(F)c(=O)[nH]c1=O [carmofur] | 107 | 98.5 | 95 | 97.8 | 61.7 | 95.4 | 93.1 | 90 | 94.8 | 83.7 | 98.7 | 103 | 98.5 | 99.5 | 54 | 106 | 102 | 102 | 97.4 | 58.8 | – | > 10 | – | – | 2.2 | 0.4 | 2.4 | 2.4 | 100 | 98.3 | 101 | 76.4 | 42.5 | 1.16 | 6.3 |
| CCCCCCNC(=O)n1cc(F)c(=O)[nH]c1=O [Carmofur] | 106 | 92 | 94.1 | 91.7 | 74.1 | 89.8 | 102 | 100 | 101 | 93.8 | 103 | 96.5 | 102 | 94.8 | 55.9 | 104 | 99.4 | 102 | 102 | 67.1 | – | > 10 | – | – | 1.5 | 0 | 3.1 | 1.4 | 108 | 104 | 102 | 85.5 | 63.6 | – | 3.7 |
| CCn1c(-c2nonc2N)nc2cnc(Oc3cccc(NC(=O)c4ccc(OCCN5CCOCC5)cc4)c3)cc21 | 94.9 | 98 | 94.9 | 97.8 | 67.7 | 97.9 | 123 | 144 | 131 | 125 | 97.5 | 98.6 | 91.4 | 78.5 | 62.1 | 96.5 | 99.3 | 88.9 | 72.2 | 72.1 | – | > 10 | – | – | 1.8 | 0 | 4.4 | 5.9 | 96.6 | 107 | 114 | 80.4 | 52.4 | – | 5.1 |
| Cc1nnc2ccc(-c3cccc(C(F)(F)F)c3)nn12 | 92.5 | 97.3 | 107 | 97.6 | 87.9 | 99.5 | 111 | 95 | 101 | 91.2 | 99.1 | 98.8 | 94.3 | 99.4 | 94.5 | – | – | – | – | – | > 10 | > 10 | > 10 | – | 0.2 | 0 | 0 | – | 107 | 102 | 107 | 90.4 | 108 | > 10 | 0 |
| O=C(NOCC(O)CO)c1cc(Br)c(F)c(F)c1Nc1ccc(I)cc1F (stereo not drawn) | 102 | 92.3 | 73.3 | 69.5 | 68.7 | 94.8 | 81.8 | 73.3 | 62.1 | 43.2 | 103 | 94.7 | 92.7 | 97.6 | 67.8 | 93.8 | 88.6 | 76.7 | 55.2 | 51.3 | – | 0.102 | – | – | 9.1 | 11.8 | 1.8 | 11.1 | 99.5 | 97.9 | 46.1 | 25.7 | 21.3 | 0.0645 | 20.9 |
| NS(=O)(=O)NCc1csc2ccccc12 | 84.1 | 95.7 | 96.2 | 94.3 | 87.3 | 90.7 | 93.4 | 94.8 | 103 | 95.4 | 102 | 106 | 96.4 | 104 | 99.8 | – | – | – | – | – | > 10 | > 10 | > 10 | – | 0 | 0 | 0 | – | 109 | 97 | 111 | 98.7 | 112 | > 10 | 0 |
